From patent US12209075B2, “Pyridine-sulfonamide derivatives as sodium channel inhibitors” (GENENTECH, INC., priority 2018, dated 2025) come the findings set out here.

Where a name gives a salt, the structure may show the parent alone.

In experiment [1] the target is T1, hNav1.7 (Homo sapiens (Human), UniProt Q15858). Description: Tritiated compound binding to membranes from cells expressing hNav1.7 and the β1 subunit (Nav1.7 LBA EVO). To be noted: competitive binding vs [3H]compound, membranes with hNav1.7 and β1 subunit. An outline of the steps:
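Membranes from cells expressing hNav1.7 plus β1 were incubated at room temperature with [3H]-labelled Nav1.7 inhibitor and test compound in 100 mM NaCl, 20 mM Tris pH 7.4, 0.01% BSA. Two protocols: 100 pM radioligand for 18 h, or 300 pM for 3 h. Non-specific binding was set with 1 μM unlabelled compound; filtration/scintillation gave IC50 by 4-parameter fit.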
Target sequence in this assay (Q15858 whole entry, looked up): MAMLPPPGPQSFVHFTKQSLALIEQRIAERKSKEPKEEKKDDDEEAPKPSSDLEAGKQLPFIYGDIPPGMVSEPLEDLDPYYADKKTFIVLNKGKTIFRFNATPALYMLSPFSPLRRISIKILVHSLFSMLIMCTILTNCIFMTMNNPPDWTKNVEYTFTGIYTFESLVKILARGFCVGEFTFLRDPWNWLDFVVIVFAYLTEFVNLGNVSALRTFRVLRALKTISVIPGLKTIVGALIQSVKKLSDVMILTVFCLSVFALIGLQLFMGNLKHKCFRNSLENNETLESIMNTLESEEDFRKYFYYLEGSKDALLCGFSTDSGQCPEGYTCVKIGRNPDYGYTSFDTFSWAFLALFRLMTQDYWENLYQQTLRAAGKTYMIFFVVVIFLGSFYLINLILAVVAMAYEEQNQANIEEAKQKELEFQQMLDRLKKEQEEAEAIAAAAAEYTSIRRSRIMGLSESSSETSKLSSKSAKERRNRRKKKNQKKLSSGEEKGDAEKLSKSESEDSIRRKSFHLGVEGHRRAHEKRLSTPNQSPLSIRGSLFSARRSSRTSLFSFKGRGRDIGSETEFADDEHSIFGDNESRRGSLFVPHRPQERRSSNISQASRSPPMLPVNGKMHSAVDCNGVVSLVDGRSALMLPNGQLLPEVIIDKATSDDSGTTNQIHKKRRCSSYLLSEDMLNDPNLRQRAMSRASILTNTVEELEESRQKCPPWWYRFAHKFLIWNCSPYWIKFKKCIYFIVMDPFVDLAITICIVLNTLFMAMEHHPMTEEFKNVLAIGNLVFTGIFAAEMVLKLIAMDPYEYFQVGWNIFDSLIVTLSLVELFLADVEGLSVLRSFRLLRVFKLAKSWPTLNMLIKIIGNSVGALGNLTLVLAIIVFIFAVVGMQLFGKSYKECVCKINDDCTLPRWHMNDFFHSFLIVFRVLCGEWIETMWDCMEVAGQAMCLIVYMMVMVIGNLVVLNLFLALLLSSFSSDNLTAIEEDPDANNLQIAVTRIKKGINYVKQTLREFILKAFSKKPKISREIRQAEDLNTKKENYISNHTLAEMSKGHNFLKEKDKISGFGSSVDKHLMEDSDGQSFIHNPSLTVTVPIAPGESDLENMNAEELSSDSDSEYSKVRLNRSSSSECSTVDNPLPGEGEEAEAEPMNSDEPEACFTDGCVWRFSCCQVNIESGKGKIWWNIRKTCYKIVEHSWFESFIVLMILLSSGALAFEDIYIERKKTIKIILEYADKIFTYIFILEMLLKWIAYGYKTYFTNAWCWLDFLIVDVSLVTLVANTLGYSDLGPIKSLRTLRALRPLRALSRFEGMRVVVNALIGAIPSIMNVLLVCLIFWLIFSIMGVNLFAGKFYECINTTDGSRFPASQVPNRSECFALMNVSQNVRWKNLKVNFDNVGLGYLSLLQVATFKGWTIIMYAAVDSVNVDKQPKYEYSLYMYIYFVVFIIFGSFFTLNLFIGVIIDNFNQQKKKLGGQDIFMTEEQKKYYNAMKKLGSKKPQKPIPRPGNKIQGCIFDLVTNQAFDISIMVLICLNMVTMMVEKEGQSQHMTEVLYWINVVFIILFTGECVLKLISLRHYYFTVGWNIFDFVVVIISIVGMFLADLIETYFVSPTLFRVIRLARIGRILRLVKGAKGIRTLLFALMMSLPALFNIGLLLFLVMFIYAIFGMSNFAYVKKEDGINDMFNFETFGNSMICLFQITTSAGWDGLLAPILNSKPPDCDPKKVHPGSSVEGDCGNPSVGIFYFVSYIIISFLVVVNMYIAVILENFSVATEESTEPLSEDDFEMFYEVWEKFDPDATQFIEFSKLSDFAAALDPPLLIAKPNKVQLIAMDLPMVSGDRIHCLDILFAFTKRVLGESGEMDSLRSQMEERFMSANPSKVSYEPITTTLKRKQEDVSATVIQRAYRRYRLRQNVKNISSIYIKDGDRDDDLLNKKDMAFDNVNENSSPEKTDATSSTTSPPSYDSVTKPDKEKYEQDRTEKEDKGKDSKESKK
Target sequence in this assay (Q07699 whole entry partner, looked up): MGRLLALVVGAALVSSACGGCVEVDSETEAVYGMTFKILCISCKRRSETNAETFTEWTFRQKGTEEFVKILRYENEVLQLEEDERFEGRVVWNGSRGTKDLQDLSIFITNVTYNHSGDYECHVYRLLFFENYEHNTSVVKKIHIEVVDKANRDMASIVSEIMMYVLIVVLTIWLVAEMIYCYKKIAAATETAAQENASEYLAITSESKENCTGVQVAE

The target of experiment [2] is T1, hNav1.7. Description: Patch voltage clamp electrophysiology assay (EP), Syncropatch 384PE, CHO cells expressing Nav1.7. The experiment is classed as cell-based. Conditions: holding potential −50 mV, 7.5 min compound incubation; read-out: EP_SP hNav1.7 EVO IC50. An excerpt: Example 64c. Electrophysiological Assay (EP) (In Vitro Assay)
Patch voltage clamp electrophysiology allows for the direct measurement and quantification of block of voltage-gated sodium channels (NaV's), and allows the determination of the time- and voltage-dependence of block which has been interpreted as differential binding to the resting, open, and inactivated states of the sodium channel (Hille, B., Journal of General Physiology (1977), 69: 497-515).
The following voltage clamp electrophysiology studies are performed on representative compounds using cells heterologously expressing Nav1.7 or Nav1.5 channels. cDNAs for Nav1.7 (NM 002977) and Nav1.5 (AC137587) are stably expressed in Chinese Hamstr Ovary (CHO) cells and CHL (Chinese Hamster Lung) cells respectively. Sodium currents are measured in the whole-cell configuration using Syncropatch 384PE ([…], Germany). 1NPC®-384 chips with custom medium resistance and single hole mode are used. Internal solution consists of (in mM): […], 10CsCl, 20EGTA, and 10Hepes (pH adjusted to 7.2); and external solution contains (in mM): 60NMDG, 80NaCl, 4 KCl, 1MgCl2, 2CaCl2, 2D-Glucose monohydrate, 10Hepes (pH adjusted to 7.4 with NaOH).
After system flushing, testing compounds are dissolved in external solution containing 0.1% Pluronic F-127. The chip is moved into the measuring head and the instrument primes the chip with external and internal solutions. 10 μl cells are added to the chip from a cell hotel, and a negative pressure of −50 mBar is applied to form a seal. Following treatment with seal enhancer solution and wash-off with external solution, negative pressure of −250 mbar is applied for 1 second to achieve the whole-cell configuration, followed by three washing steps in external solution. 20 μl of compounds is added to 40 μl in each well (1:3 dilution of compounds), and after mixing, 20 μl is removed so the volume is retained at 40 ul. After approximately 13 minutes recordings, 20 μl/well of 2 uM TTX, or 333 uM Tetracaine (for Nav1.5) is added to achieve full block.
For voltage protocol, an holding potential of −50 mV is applied during the whole experiment. A depolarizing step is applied to −10 mV for 10 ms, followed by a hyperpolarization step to −150 mV for 20 ms to allow channel recovery from inactivation. A second depolarizing step is applied from −150 mV to −10 mV for 10 ms, where currents are measured to derive blocking effects of compounds. Inhibition is determined based on 7.5 min of compound incubation.
Target sequence in this assay (Q15858 other isoform, or with tags, fused parts or gaps): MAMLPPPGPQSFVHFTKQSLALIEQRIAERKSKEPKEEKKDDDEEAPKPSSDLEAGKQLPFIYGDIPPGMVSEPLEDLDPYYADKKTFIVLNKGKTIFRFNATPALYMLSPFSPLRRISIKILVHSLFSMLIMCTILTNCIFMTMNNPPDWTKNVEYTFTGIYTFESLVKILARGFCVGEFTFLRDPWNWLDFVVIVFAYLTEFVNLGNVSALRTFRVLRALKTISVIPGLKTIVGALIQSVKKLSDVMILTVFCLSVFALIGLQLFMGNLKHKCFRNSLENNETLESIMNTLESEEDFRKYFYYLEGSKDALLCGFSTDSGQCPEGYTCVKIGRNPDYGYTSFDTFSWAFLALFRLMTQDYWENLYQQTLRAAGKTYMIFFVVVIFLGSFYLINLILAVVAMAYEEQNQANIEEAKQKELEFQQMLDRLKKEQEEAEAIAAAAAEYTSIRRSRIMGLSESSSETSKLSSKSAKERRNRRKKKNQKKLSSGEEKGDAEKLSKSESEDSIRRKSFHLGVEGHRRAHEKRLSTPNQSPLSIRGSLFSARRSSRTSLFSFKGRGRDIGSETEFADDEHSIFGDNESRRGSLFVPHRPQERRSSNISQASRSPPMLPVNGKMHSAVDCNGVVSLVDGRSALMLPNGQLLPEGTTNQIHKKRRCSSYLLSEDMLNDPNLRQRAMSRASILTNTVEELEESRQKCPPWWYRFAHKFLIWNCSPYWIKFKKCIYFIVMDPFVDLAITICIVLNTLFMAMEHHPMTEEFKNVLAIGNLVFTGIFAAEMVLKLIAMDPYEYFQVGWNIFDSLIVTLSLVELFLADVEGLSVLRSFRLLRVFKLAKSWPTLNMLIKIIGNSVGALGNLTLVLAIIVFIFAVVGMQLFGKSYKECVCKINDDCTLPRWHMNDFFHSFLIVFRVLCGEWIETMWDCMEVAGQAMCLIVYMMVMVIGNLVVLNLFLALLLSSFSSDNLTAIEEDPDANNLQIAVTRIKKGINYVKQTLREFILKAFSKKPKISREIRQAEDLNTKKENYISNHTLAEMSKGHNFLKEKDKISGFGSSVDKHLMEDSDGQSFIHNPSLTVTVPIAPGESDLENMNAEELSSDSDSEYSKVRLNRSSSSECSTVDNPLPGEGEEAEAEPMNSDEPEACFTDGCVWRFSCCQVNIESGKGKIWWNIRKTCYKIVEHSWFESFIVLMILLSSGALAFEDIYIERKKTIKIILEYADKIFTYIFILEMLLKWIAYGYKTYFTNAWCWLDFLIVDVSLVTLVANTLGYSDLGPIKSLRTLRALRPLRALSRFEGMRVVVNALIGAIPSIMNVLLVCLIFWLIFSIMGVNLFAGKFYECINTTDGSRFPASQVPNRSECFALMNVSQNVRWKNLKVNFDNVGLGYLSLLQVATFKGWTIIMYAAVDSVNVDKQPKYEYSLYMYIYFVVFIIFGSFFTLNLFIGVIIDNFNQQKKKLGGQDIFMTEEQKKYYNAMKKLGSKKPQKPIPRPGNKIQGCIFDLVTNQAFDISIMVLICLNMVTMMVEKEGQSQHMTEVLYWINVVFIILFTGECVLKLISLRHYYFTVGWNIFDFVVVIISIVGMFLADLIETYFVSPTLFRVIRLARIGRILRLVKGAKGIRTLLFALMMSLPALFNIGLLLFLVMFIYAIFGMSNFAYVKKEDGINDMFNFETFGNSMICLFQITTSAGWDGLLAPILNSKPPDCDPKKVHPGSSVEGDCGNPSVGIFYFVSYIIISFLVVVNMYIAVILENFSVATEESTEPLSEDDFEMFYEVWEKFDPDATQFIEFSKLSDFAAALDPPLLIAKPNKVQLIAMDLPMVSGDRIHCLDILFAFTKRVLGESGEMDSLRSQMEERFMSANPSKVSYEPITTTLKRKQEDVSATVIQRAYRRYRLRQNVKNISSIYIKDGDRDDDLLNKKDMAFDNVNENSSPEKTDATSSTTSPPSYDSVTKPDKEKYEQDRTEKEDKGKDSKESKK
Background: Patch clamp records ionic current or voltage across a cell membrane.

The term IC50 denotes the midpoint of a concentration-inhibition curve. In the case of “6-(((1S,2S,4S)-2-(dimethylamino)-4-(6-(trifluoromethyl)pyridin-2-yl)cyclohexyl)oxy)-2-methyl-N-(pyrimidin-4-yl)pyridine-3-sulfonamide [Example 51]”, the values for the IC50 on hNav1.7 [1] and at hNav1.7 [2] were 0.985 nM and 4.59 nM, respectively.

On to `CN(C)[C@H]1C[C@@H](c2cccc(OC(F)(F)F)c2)CC[C@@H]1Nc1ccc(S(=O)(=O)Nc2ccncn2)cn1` [Example 8, 6-(((1S,2S,4S)-2-(dimethylamino)-4-(3-(trifluoromethoxy)phenyl)cyclohexyl)amino)-N-(pyrimidin-4-yl)pyridine-3-sulfonamide formate], for which the IC50 at hNav1.7 [1] worked out at 7.12 nM; on hNav1.7 [2] it was 0.574 nM.

As for `O=S(=O)(Nc1ccncn1)c1ccc(N[C@H]2CC[C@H](c3cccc(OC(F)(F)F)c3)C[C@@H]2N2CCCC2)nc1` [Example 9, N-(pyrimidin-4-yl)-6-(((1S,2S,4S)-2-(pyrrolidin-1-yl)-4-(3-(trifluoromethoxy)phenyl)cyclohexyl)-amino)pyridine-3-sulfonamide formate], the figures for the half-inhibitory concentration (IC50) at hNav1.7 [1] and on hNav1.7 [2] were 4.11 nM and 0.664 nM, respectively.

Take `CN(C)[C@H]1C[C@@H](c2cccc(Cl)c2)CC[C@@H]1Oc1ncc(S(=O)(=O)Nc2ccncn2)cc1Cl` [Example 27, 5-Chloro-6-(((1S,2S,4S)-4-(3-chlorophenyl)-2-(dimethylamino)cyclohexyl)oxy)-N-(pyrimidin-4-yl)pyridine-3-sulfonamide]: the concentration for half-maximal inhibition (IC50) on hNav1.7 [1] is 7.12 nM; at hNav1.7 [2], 0.574 nM.

For `Cc1nc(O[C@H]2CC[C@H](c3ccc(Cl)c(Cl)c3)C[C@@H]2N(C)C)ccc1S(=O)(=O)Nc1ccncn1` [Example 37, 6-(((1S,2S,4S)-4-(3,4-dichlorophenyl)-2-(dimethylamino)cyclohexyl)oxy)-2-methyl-N-(pyrimidin-4-yl)pyridine-3-sulfonamide], the results for the IC50 at hNav1.7 [1] and at hNav1.7 [2] were 1.36 nM and 0.301 nM, respectively.

Consider `Cc1nc(O[C@H]2CC[C@H](c3cc(Cl)cc(Cl)c3)C[C@@H]2N(C)C)ccc1S(=O)(=O)Nc1ccncn1` [Example 50, 6-(((1S,2S,4S)-4-(3,5-dichlorophenyl)-2-(dimethylamino)cyclohexyl)oxy)-2-methyl-N-(pyrimidin-4-yl)pyridine-3-sulfonamide], for which the IC50 was found to be 1.12 nM at hNav1.7 [1] and 0.222 nM at hNav1.7 [2].

Regarding `CN(C)[C@H]1C[C@@H](c2cccc(SC(F)(F)F)c2)CC[C@@H]1Oc1ccc(S(=O)(=O)Nc2ccncn2)cn1` [Example 63, 6-(((1S,2S,4S)-2-(Dimethylamino)-4-(3-((trifluoromethyl)thio)phenyl)cyclohexyl)oxy)-N-(pyrimidin-4-yl)pyridine-3-sulfonamide], on hNav1.7 [1], the IC50 is 0.635 nM.
